Results as given in PubChem BioAssay (NCI).
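All cell lines were grown in 96-well plates and treated with compound for 48 hours. The concentration for 50% growth inhibition is given as GI50. TGI: total growth inhibition.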

Assays:
Experiment in all cases: growth of human tumour cells (NCI), 48 h
SF-295 CNS = tested on: SF-295 CNS
HT29 colon = tested on: HT29 colon
DU-145 prostate = tested on: DU-145 prostate
CCRF-CEM leukemia = tested on: CCRF-CEM leukemia
NCI-H23 lung = tested on: NCI-H23 lung
PC-3 prostate = tested on: PC-3 prostate
NCI-H522 lung = tested on: NCI-H522 lung
MDA-MB-435 = tested on: MDA-MB-435
LOX IMVI melanoma = tested on: LOX IMVI melanoma
SK-OV-3 ovarian = tested on: SK-OV-3 ovarian
SNB-19 CNS = tested on: SNB-19 CNS
OVCAR-8 ovarian = tested on: OVCAR-8 ovarian
OVCAR-5 ovarian = tested on: OVCAR-5 ovarian
M14 melanoma = tested on: M14 melanoma
786-0 renal = tested on: 786-0 renal
U251 CNS = tested on: U251 CNS
EKVX NSCLC = tested on: EKVX NSCLC
CAKI-1 renal = tested on: CAKI-1 renal
A549 NSCLC = tested on: A549 NSCLC
SW-620 colon = tested on: SW-620 colon
MOLT-4 leukemia = tested on: MOLT-4 leukemia
TK-10 renal = tested on: TK-10 renal
NCI-H460 lung = tested on: NCI-H460 lung
SF-268 CNS = tested on: SF-268 CNS
K-562 leukemia = tested on: K-562 leukemia
SF-539 CNS = tested on: SF-539 CNS
SK-MEL-2 melanoma = tested on: SK-MEL-2 melanoma
RPMI-8226 leukemia = tested on: RPMI-8226 leukemia
UACC-62 melanoma = tested on: UACC-62 melanoma
HCT-15 colon = tested on: HCT-15 colon
MCF7 breast = tested on: MCF7 breast
HCC-2998 colon = tested on: HCC-2998 colon
HOP-92 NSCLC = tested on: HOP-92 NSCLC
NCI/ADR-RES ovarian = tested on: NCI/ADR-RES ovarian
SK-MEL-28 melanoma = tested on: SK-MEL-28 melanoma
SK-MEL-5 melanoma = tested on: SK-MEL-5 melanoma
HS 578T breast = tested on: HS 578T breast
T-47D breast = tested on: T-47D breast
MDA-MB-231 breast = tested on: MDA-MB-231 breast
NCI-H226 lung = tested on: NCI-H226 lung
SNB-75 CNS = tested on: SNB-75 CNS
KM12 colon = tested on: KM12 colon
UO-31 renal = tested on: UO-31 renal
IGROV1 ovarian = tested on: IGROV1 ovarian
COLO 205 colon = tested on: COLO 205 colon
SN12C renal = tested on: SN12C renal
ACHN renal = tested on: ACHN renal
OVCAR-3 ovarian = tested on: OVCAR-3 ovarian
BT-549 breast = tested on: BT-549 breast
RXF 393 renal = tested on: RXF 393 renal
OVCAR-4 ovarian = tested on: OVCAR-4 ovarian
UACC-257 melanoma = tested on: UACC-257 melanoma
HL-60(TB) leukemia = tested on: HL-60(TB) leukemia
MALME-3M melanoma = tested on: MALME-3M melanoma
HCT-116 colon = tested on: HCT-116 colon
A498 renal = tested on: A498 renal
HOP-62 NSCLC = tested on: HOP-62 NSCLC

Compound: Nc1ccccc1C#Cc1ccccc1C#CCCCCO
- GI50 (SF-295 CNS): 29.2 µM
- TGI (SF-295 CNS): 81.2 µM
- GI50 (HT29 colon): 15.9 µM
- TGI (HT29 colon): 31.1 µM
- GI50 (DU-145 prostate): 28.2 µM
- TGI (DU-145 prostate): > 100 µM
- GI50 (CCRF-CEM leukemia): 23.2 µM
- TGI (CCRF-CEM leukemia): 78.7 µM
- GI50 (NCI-H23 lung): 24.4 µM
- TGI (NCI-H23 lung): 58.1 µM
- GI50 (PC-3 prostate): 27.8 µM
- TGI (PC-3 prostate): 99.4 µM
- GI50 (NCI-H522 lung): 14.3 µM
- TGI (NCI-H522 lung): 31.2 µM
- GI50 (MDA-MB-435): 10.3 µM
- TGI (MDA-MB-435): 53.9 µM
- GI50 (LOX IMVI melanoma): 17 µM
- TGI (LOX IMVI melanoma): 32.6 µM
- GI50 (SK-OV-3 ovarian): > 100 µM
- TGI (SK-OV-3 ovarian): > 100 µM
- GI50 (SNB-19 CNS): 35.7 µM
- TGI (SNB-19 CNS): > 100 µM
- GI50 (OVCAR-8 ovarian): 20.3 µM
- TGI (OVCAR-8 ovarian): 49.4 µM
- GI50 (OVCAR-5 ovarian): 25.6 µM
- TGI (OVCAR-5 ovarian): 64.4 µM
- GI50 (M14 melanoma): 17.1 µM
- TGI (M14 melanoma): 36.2 µM
- GI50 (786-0 renal): 16 µM
- TGI (786-0 renal): 37.7 µM
- GI50 (U251 CNS): 22.6 µM
- TGI (U251 CNS): 47.1 µM
- GI50 (EKVX NSCLC): 29.1 µM
- TGI (EKVX NSCLC): 96.7 µM
- GI50 (CAKI-1 renal): 22.8 µM
- TGI (CAKI-1 renal): 67.1 µM
- GI50 (A549 NSCLC): 18 µM
- TGI (A549 NSCLC): 45 µM
- GI50 (SW-620 colon): 25.1 µM
- TGI (SW-620 colon): 77.3 µM
- GI50 (MOLT-4 leukemia): 22.7 µM
- TGI (MOLT-4 leukemia): 68.1 µM
- GI50 (TK-10 renal): 27.5 µM
- TGI (TK-10 renal): 91.5 µM
- GI50 (NCI-H460 lung): 30.5 µM
- TGI (NCI-H460 lung): > 100 µM
- GI50 (SF-268 CNS): 33.9 µM
- TGI (SF-268 CNS): > 100 µM
- GI50 (K-562 leukemia): 19.1 µM
- TGI (K-562 leukemia): 58.3 µM
- GI50 (SF-539 CNS): 19 µM
- TGI (SF-539 CNS): 42.8 µM
- GI50 (SK-MEL-2 melanoma): 28.4 µM
- TGI (SK-MEL-2 melanoma): > 100 µM
- GI50 (RPMI-8226 leukemia): 29.8 µM
- TGI (RPMI-8226 leukemia): 72.2 µM
- GI50 (UACC-62 melanoma): 11.9 µM
- TGI (UACC-62 melanoma): 32.5 µM
- GI50 (HCT-15 colon): 19.8 µM
- TGI (HCT-15 colon): 42.5 µM
- GI50 (MCF7 breast): 60.8 µM
- TGI (MCF7 breast): > 100 µM
- GI50 (HCC-2998 colon): 14.6 µM
- TGI (HCC-2998 colon): 30.1 µM
- GI50 (HOP-92 NSCLC): 28.1 µM
- TGI (HOP-92 NSCLC): 80.4 µM
- GI50 (NCI/ADR-RES ovarian): 14.4 µM
- TGI (NCI/ADR-RES ovarian): 39.4 µM
- GI50 (SK-MEL-28 melanoma): 28.4 µM
- TGI (SK-MEL-28 melanoma): 49.7 µM
- GI50 (SK-MEL-5 melanoma): 31.5 µM
- TGI (SK-MEL-5 melanoma): 94.3 µM
- GI50 (HS 578T breast): 35.8 µM
- TGI (HS 578T breast): > 100 µM
- GI50 (T-47D breast): 30.3 µM
- TGI (T-47D breast): > 100 µM
- GI50 (MDA-MB-231 breast): 16.2 µM
- TGI (MDA-MB-231 breast): 37 µM
- GI50 (NCI-H226 lung): 27.4 µM
- TGI (NCI-H226 lung): 61.3 µM
- GI50 (SNB-75 CNS): 11.3 µM
- TGI (SNB-75 CNS): 33.6 µM
- GI50 (KM12 colon): 16.9 µM
- TGI (KM12 colon): 48.4 µM
- GI50 (UO-31 renal): 20.3 µM
- TGI (UO-31 renal): 54.8 µM
- GI50 (IGROV1 ovarian): 17.5 µM
- TGI (IGROV1 ovarian): 46.7 µM
- GI50 (COLO 205 colon): 23.7 µM
- TGI (COLO 205 colon): 59.3 µM
- GI50 (SN12C renal): 2.8 µM
- TGI (SN12C renal): 9.49 µM
- GI50 (ACHN renal): 24.7 µM
- TGI (ACHN renal): 59 µM
- GI50 (OVCAR-3 ovarian): 25.7 µM
- TGI (OVCAR-3 ovarian): 63.4 µM
- GI50 (BT-549 breast): 23.2 µM
- TGI (BT-549 breast): 76.5 µM
- GI50 (RXF 393 renal): 5.73 µM
- TGI (RXF 393 renal): 26.1 µM
- GI50 (OVCAR-4 ovarian): 34.1 µM
- TGI (OVCAR-4 ovarian): 70.6 µM
- GI50 (UACC-257 melanoma): 19.7 µM
- TGI (UACC-257 melanoma): 50.9 µM
- GI50 (HL-60(TB) leukemia): 23.2 µM
- TGI (HL-60(TB) leukemia): 51.8 µM
- GI50 (MALME-3M melanoma): 12.4 µM
- TGI (MALME-3M melanoma): 44.4 µM
- GI50 (HCT-116 colon): 12.9 µM
- TGI (HCT-116 colon): 26.6 µM
- GI50 (A498 renal): 21.9 µM
- TGI (A498 renal): 77.8 µM
- GI50 (HOP-62 NSCLC): 10.9 µM
- TGI (HOP-62 NSCLC): 33.5 µM
